Source: ChEMBL document CHEMBL1128327, “L-O-(2-malonyl)tyrosine: a new phosphotyrosyl mimetic for the preparation of Src homology 2 domain inhibitory peptides” (J Med Chem, 1995)
Values belong to the molecule of their own block, whether it stands above or below them. Square brackets hold non-standard residues; d marks the D form. Peptide text beside a SMILES is read from it. * marks the point of attachment. pY = N[C@@H](Cc1ccc(OP(=O)(O)O)cc1)C(=O)O; X1 = O=C(O)C(C(=O)O)*

Tests used:
Format in all cases: functional
[1] = target: Proto-oncogene tyrosine-protein kinase Src (Homo sapiens, UniProt P12931); experiment: Inhibitory activity against Src protein tyrosine kinase SH2 domain
[2] = Inhibitory activity against SH2 domain of PI3-kinase p85
[3] = target: T1, Tyrosine-protein phosphatase non-receptor type 11 (Homo sapiens, UniProt Q06124); experiment: Inhibitory activity against SH2 domain of SH-PTP2 (N-terminal) binding
T1 sequence (Q06124 whole entry): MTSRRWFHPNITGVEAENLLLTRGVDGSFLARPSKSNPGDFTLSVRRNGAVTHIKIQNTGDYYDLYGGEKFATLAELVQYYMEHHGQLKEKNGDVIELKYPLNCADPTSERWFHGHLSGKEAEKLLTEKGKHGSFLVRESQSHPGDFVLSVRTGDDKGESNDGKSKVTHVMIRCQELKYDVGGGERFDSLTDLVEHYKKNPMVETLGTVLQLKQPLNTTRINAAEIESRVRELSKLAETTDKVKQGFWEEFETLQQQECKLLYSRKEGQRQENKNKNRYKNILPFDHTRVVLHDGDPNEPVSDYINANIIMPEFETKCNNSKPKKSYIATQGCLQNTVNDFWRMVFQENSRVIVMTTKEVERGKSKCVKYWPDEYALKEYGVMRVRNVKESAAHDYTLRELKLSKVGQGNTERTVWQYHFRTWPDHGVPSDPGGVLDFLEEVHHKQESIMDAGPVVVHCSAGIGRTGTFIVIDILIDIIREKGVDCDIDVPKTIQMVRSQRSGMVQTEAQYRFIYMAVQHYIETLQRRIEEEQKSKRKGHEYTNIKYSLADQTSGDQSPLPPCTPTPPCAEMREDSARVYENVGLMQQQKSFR

[4] = target: Growth factor receptor-bound protein 2 (Homo sapiens, UniProt P62993); experiment: Inhibition of binding to Growth factor receptor bound protein 2 SH2 domain

Sequence of Proto-oncogene tyrosine-protein kinase Src (P12931 2-536 limits assumed): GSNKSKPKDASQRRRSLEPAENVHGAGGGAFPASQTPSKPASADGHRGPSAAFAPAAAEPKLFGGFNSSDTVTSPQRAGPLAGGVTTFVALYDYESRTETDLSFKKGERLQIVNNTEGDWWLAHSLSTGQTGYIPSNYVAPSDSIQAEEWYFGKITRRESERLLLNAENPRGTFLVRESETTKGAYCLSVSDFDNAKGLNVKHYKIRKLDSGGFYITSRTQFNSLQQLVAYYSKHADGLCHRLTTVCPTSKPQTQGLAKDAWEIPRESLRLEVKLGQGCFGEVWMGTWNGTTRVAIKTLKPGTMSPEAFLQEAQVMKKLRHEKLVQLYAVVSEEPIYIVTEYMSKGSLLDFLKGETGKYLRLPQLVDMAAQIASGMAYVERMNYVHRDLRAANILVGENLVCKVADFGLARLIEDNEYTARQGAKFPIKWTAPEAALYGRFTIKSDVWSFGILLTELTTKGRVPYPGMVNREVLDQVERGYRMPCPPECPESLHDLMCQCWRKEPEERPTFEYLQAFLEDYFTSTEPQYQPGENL

Compound: CC[C@H](C)[C@H](NC(=O)[C@H](CCC(=O)O)NC(=O)[C@H](Cc1ccc(OC(C(=O)O)C(=O)O)cc1)NC(=O)[C@H](Cc1ccc(OC(C(=O)O)C(=O)O)cc1)NC(=O)[C@H](CCC(N)=O)NC(C)=O)C(=O)N1CCC[C@H]1C(N)=O
IC50 [1]: 22.8 µM

Compound: CSCC[C@H](NC(=O)[C@@H]1CCCN1C(=O)[C@@H](NC(=O)[C@H](Cc1ccc(OP(=O)(O)O)cc1)NC(=O)[C@H](CC(=O)O)NC(C)=O)C(C)C)C(=O)N[C@@H](CC(C)C)C(N)=O (Ac-D[pY]VPML-NH2)
IC50 [2]: 0.15 µM

Compound: CC[C@H](C)[C@H](NC(=O)[C@H](Cc1ccc(OC(C(=O)O)C(=O)O)cc1)NC(=O)[C@H](CC(N)=O)NC(=O)[C@H](CC(C)C)NC(C)=O)C(=O)N[C@@H](CC(=O)O)C(=O)N[C@@H](CC(C)C)C(=O)N[C@@H](CC(=O)O)C(=O)N[C@@H](CC(C)C)C(=O)N[C@H](C(N)=O)C(C)C (Ac-LNY(X1)IDLDLV-NH2)
IC50 [3]: 22 µM

Compound: CC[C@H](C)[C@H](NC(=O)[C@H](Cc1ccc(OP(=O)(O)O)cc1)NC(=O)[C@H](CC(N)=O)NC(=O)[C@H](CC(C)C)NC(C)=O)C(=O)N[C@@H](CC(=O)O)C(=O)N[C@@H](CC(C)C)C(=O)N[C@@H](CC(=O)O)C(=O)N[C@@H](CC(C)C)C(=O)N[C@H](C(N)=O)C(C)C (Ac-LN[pY]IDLDLV-NH2)
IC50 [3]: 1.54 µM

Compound: CC[C@H](C)[C@H](NC(=O)[C@H](CC(N)=O)NC(=O)[C@@H](NC(=O)[C@H](Cc1ccc(OC(C(=O)O)C(=O)O)cc1)NC(=O)[C@H](CC(N)=O)NC(C)=O)C(C)C)C(=O)N[C@@H](CCC(=O)O)C(N)=O (Ac-NY(X1)VNIE-NH2)
IC50 [4]: 120 µM

Compound: CC[C@H](C)[C@H](NC(=O)[C@H](CC(N)=O)NC(=O)[C@@H](NC(=O)[C@H](Cc1ccc(OP(=O)(O)O)cc1)NC(=O)[C@H](CC(N)=O)NC(C)=O)C(C)C)C(=O)N[C@@H](CCC(=O)O)C(N)=O (Ac-N[pY]VNIE-NH2)
IC50 [4]: 0.9 µM

Further lines, results first:

IC50 [1]: 3.2 µM
Compound: CC[C@H](C)[C@H](NC(=O)[C@H](CCC(=O)O)NC(=O)[C@H](CCC(=O)O)NC(=O)[C@H](Cc1ccc(OP(=O)(O)O)cc1)NC(=O)[C@H](CCC(N)=O)NC(C)=O)C(=O)N1CCC[C@H]1C(N)=O

IC50 [1]: 25 µM
Compound: CC[C@H](C)[C@H](NC(=O)[C@H](CCC(=O)O)NC(=O)[C@H](CCC(=O)O)NC(=O)[C@H](Cc1ccc(OC(C(=O)O)C(=O)O)cc1)NC(=O)[C@H](CCC(N)=O)NC(C)=O)C(=O)N1CCC[C@H]1C(N)=O

IC50 [2]: 14.2 µM
Compound: CSCC[C@H](NC(=O)[C@@H]1CCCN1C(=O)[C@@H](NC(=O)[C@H](Cc1ccc(OC(C(=O)O)C(=O)O)cc1)NC(=O)[C@H](CC(=O)O)NC(C)=O)C(C)C)C(=O)N[C@@H](CC(C)C)C(N)=O (Ac-DY(X1)VPML-NH2)
